Measurements published in US9796710B2, “Dihydropyrrolopyridine inhibitors of ROR-gamma” (Vitae Pharmaceuticals, Inc., priority 2014, dated 2017).
Where two headings read alike, the source gives them in different places.

Experiments:
[1] = molecular target: full-length RORγt in Jurkat cells (Homo sapiens (Human), UniProt P51449)
Protocol: ROR ? t 5×RORE Assay in Jurkat Cells (Assay 2)
Compounds of the present invention were tested for ROR ? inverse agonist activity in a cell-based, transcriptional activity assay. […] Luciferase activity in the conditioned supernatants was determined with NanoGlo® assay reagents (Promega, Cat.# N1130).

[2] = molecular target: recombinant RORγ Ligand Binding Domain (LBD) protein (Homo sapiens (Human), UniProt P51449); experiment: Radio-Ligand RORγ Binding Assay (Assay 1); settings: read-out: RORγ Binding Ki Range* (nM) (Assay 1)
Protocol: Radio-Ligand ROR ? Binding Assay (Assay 1)
The plate was shaken at 700 rpm for 20 min and incubated for 10 min at rt, after which 40 μL of poly-Lys YSi SPA beads (PerkinElmer, Cat. # RPNQ0010) were added to achieve 50 μg of the beads per well. The plate was incubated on an orbital shaker for 20 min and then for 10 min without agitation at rt. SPA signal for tritium beta radiation was registered on PerkinElmer Microbeta plate reader. […] The percent inhibition vs. concentration data were fit into a four-parameter model, and IC50 values were calculated from the fit as the concentrations corresponding to the inflection points on the dose-response curves.

[3] = molecular target: hERG potassium ion channel (Homo sapiens (Human), UniProt Q12809); experiment: hERG Assay (Assay 4); format: cell-based; settings: HEK293 cells stably transfected with hERG cDNA, pH 7.4, Compound at 3 μM, patch clamp, HEK 293 cells
Protocol: Compounds of the invention were tested in vitro against the hERG (human ether-a-go-go-related gene) potassium ion channel (a surrogate for IKr, the rapidly activating delayed rectifier cardiac potassium ion channel).
The buffer was HEPES-buffered physiological saline (HB-PS) solution composed of: 137 mM NaCl, 4.0 mM KCl, 1.8 mM CaCl2, 1 mM MgCl2, 10 mM HEPES, 10 mM glucose, pH adjusted to 7.4 with NaOH, and 0.3% DMSO. Chemicals used in solution preparation were purchased from Sigma-Aldrich (St. Louis, Mo.), unless otherwise noted, and were of ACS reagent grade purity or higher.
HEK (human embryonic kidney) 293 cells were stably transfected with hERG cDNA.
For the patch clamp experiment, onset and steady state inhibition of hERG potassium current was measured using a pulse pattern with fixed amplitudes (depolarization: +20 mV for 2 s; repolarization: −50 mV for 2 s) repeated at 10 s intervals from a holding potential of −80 mV. Peak tail current was measured during the 2 s step to −50 mV. A steady state was maintained for at least 30 seconds before applying compound or positive control (cisapride). Peak tail currents were measured until a new steady state was achieved.
Data acquisition and analyses were performed using the suite of pCLAMP® (ver. 8.2) programs (MDS Analytical Technologies, Sunnyvale, Calif.). Steady state was defined by the limiting constant rate of change with time (linear time dependence). The steady state before and after each compound application was used to calculate the percentage of current inhibited at each concentration. Concentration-response data were fit to an equation of the following form: % Inhibition={1−1/[1+([Test]/IC50)N]}*100
where [Test] was the compound concentration, IC50 was the compound concentration at half-maximal inhibition, N was the Hill coefficient, and % Inhibition was the percentage of current inhibited at each compound concentration. Nonlinear least squares fits were solved with the Solver add-in for Excel 2003 (Microsoft, WA) and the IC50 was calculated.

IL-17A production = experiment: Human Whole Blood Assay (Assay 3); format: cell-based; settings: IL-17A secretion, CytoStim, 48 h, 50% blood/media
Protocol: Human Whole Blood Assay (Assay 3)
Compounds of the invention were tested in the human whole blood assay to measure their effects on IL-17A production as determined by cytokine secretion into 50% blood/media supernatant. Mixtures of sodium heparinized whole blood (isolated from healthy human donors) and the T cell activator CytoStim, in the presence or absence of compound, were plated in sterilized, tissue culture-treated 24-well plates. Specifically, the mixtures in each well were as follows: (1) 500 μL of whole blood, (2) 250 μL of compound diluted into RPMI-1640 media containing 10% HyClone™ FCS (Thermo Fisher Scientific, Waltham, Mass.), Gibco® Pen/Strep and Gibco® NEAA (Life Technologies, Grand Island, N.Y.), and (3) 250 μL of CytoStim (Miltenyi Biotech, Germany) diluted to a final concentration of 10 μL/mL in complete cell culture medium.
IL-17A cytokine expression was determined using 25 μL of the transferred supernatant diluted with 25 μL of Diluent 43 from the Human IL-17A V-PLEX™ kit (cat. # K151RFD-4, Meso Scale Discovery, Rockville, Md.). The assay was performed according to the manufacturer's instructions using included reagents. The IL-17A V-PLEX™ plates were read using the Meso Scale Discovery Imager (Model 1200).

[4] = cell-free competition with 25-hydroxy [26,27-3H]-cholesterol

Sequence of full-length RORγt in Jurkat cells (P51449 other isoform, or with tags, fused parts or gaps): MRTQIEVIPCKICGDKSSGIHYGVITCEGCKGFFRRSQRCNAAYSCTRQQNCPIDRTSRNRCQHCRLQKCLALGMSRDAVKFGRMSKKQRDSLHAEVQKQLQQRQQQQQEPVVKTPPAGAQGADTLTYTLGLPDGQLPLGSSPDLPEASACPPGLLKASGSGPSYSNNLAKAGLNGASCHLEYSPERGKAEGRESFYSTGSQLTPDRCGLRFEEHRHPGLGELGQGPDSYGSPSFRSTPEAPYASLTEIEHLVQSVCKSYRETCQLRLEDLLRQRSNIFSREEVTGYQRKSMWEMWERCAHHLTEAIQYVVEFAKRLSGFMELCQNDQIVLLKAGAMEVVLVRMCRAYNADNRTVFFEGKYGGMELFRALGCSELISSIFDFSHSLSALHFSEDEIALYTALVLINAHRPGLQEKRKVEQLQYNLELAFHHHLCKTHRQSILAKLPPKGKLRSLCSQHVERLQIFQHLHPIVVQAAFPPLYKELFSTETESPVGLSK
Sequence of recombinant RORγ Ligand Binding Domain (LBD) protein (P51449 269-508): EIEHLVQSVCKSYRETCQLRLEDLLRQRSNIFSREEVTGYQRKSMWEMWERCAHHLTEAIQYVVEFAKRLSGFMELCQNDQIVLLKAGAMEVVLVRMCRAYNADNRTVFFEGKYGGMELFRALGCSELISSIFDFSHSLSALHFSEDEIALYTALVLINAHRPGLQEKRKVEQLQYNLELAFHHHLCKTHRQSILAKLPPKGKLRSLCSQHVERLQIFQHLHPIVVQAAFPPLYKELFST
Sequence of hERG potassium ion channel (Q12809 whole entry): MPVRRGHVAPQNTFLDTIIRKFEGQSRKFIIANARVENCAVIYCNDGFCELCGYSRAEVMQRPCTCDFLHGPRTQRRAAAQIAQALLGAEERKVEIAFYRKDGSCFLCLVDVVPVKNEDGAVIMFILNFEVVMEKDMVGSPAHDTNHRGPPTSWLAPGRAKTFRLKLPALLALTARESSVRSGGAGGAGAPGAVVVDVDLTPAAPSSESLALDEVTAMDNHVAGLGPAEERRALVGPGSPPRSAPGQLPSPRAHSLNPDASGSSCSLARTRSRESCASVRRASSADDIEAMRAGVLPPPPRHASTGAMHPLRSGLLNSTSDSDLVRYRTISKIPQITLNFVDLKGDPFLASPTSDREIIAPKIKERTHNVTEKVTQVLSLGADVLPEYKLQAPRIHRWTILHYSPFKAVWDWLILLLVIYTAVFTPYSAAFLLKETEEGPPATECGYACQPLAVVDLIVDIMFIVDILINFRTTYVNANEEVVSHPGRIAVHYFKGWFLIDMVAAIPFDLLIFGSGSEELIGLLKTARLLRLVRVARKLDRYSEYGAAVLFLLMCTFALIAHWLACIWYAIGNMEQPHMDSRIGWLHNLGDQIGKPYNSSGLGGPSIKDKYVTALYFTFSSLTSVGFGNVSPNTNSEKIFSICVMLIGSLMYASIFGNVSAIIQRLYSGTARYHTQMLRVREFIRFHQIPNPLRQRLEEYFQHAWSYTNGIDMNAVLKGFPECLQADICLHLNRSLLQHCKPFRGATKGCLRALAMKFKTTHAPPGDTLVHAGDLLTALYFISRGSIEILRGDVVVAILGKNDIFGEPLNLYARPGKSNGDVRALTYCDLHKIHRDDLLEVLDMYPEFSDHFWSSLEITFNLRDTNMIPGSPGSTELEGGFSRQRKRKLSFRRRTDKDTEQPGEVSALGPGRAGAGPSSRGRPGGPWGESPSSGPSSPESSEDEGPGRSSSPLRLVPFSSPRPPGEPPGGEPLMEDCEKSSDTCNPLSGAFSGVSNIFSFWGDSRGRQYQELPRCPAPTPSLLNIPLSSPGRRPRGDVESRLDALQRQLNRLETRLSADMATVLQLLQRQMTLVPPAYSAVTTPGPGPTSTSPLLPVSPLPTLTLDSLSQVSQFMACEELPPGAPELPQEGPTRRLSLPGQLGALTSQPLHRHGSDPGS

| IC50 [1] | Ki [2, 4] | Compound | other results |
| --- | --- | --- | --- |
| < 100 nM | < 100 nM | CC[C@H]1c2ncc(C(=O)N[C@@H](CO)c3ccc(S(=O)(=O)CC)cc3)cc2CN1C[C@H]1CC[C@H](C(F)(F)F)OC1 (single isomer, unassigned) [Compound 10] |  |
| < 100 nM | < 100 nM | CC[C@H]1c2ncc(C(=O)N[C@@H](CO)c3ccc(S(=O)(=O)CC)cc3)cc2CN1C[C@@H]1CC[C@@H](C(F)(F)F)OC1 (single isomer, unassigned) [Compound 11] |  |
| < 100 nM | < 100 nM | CCS(=O)(=O)c1ccc([C@H](CO)NC(=O)c2cnc3c(c2)CN(C[C@H]2CC[C@H](C(F)(F)F)CO2)[C@H]3C(C)C)cc1 (single isomer, unassigned) [Compound 15] |  |
| > 1000 nM | < 100 nM | CCS(=O)(=O)c1ccc([C@H](CO)NC(=O)c2cnc3c(c2)CN(C[C@@H]2CC[C@H](C(F)(F)F)CO2)[C@H]3C(C)C)cc1 (single isomer, unassigned) [Compound 18] |  |
| > 1000 nM | < 100 nM | CCS(=O)(=O)c1ccc([C@H](CO)NC(=O)c2cnc3c(c2)CN(C[C@H]2CC[C@@H](C(F)(F)F)CO2)[C@H]3C(C)C)cc1 (single isomer, unassigned) [Compound 21] |  |
|  | 100 to 1000 nM | CCS(=O)(=O)c1ccc([C@H](CO)NC(=O)c2cnc3c(c2)CN(C)[C@@H]3Cc2ccccc2)cc1 (single isomer, unassigned) [Compound 34] |  |
| < 100 nM | < 100 nM | CCS(=O)(=O)c1ccc([C@H](NC(=O)c2cnc3c(c2)CN(C[C@H]2CC[C@H](C(F)(F)F)CC2)[C@H]3C(C)C)[C@H](C)O)cc1 (single isomer, unassigned) [Compound 39] | inhibition at 3 µM [3]: 32.7% |
| < 100 nM | < 100 nM | CCS(=O)(=O)c1ccc([C@@H](NC(=O)c2cnc3c(c2)CN(C[C@H]2CC[C@H](C(F)(F)F)CC2)[C@H]3C(C)C)[C@@H](C)O)cc1 (single isomer, unassigned) [Compound 42] | inhibition at 3 µM [3]: 63.9% |
| < 100 nM | < 100 nM | CCS(=O)(=O)c1ccc([C@H](CO)NC(=O)c2cnc3c(c2)CN(C[C@@H]2CC[C@@H](C(F)(F)F)OC2)[C@H]3C(C)C)cc1 [Compound 2] |  |
|  | < 100 nM | CCS(=O)(=O)c1ccc(C(C)(CO)NC(=O)c2cnc3c(c2)CN(C[C@H]2CC[C@H](C(F)(F)F)CC2)[C@H]3C(C)C)cc1 (some centres unmarked) [Compound 7] |  |
| < 100 nM | < 100 nM | CCS(=O)(=O)c1ccc([C@H](CO)NC(=O)c2cnc3c(c2)CN(C[C@@H]2CC[C@@H](C(F)(F)F)CO2)[C@H]3C(C)C)cc1 [Compound 14] |  |
|  | < 100 nM | CCS(=O)(=O)c1ccc([C@H](CO)NC(=O)c2cnc3c(c2)CN(CC(F)(F)F)[C@@H]3Cc2ccccc2)cc1 [Compound 19] |  |
|  | < 100 nM | CCS(=O)(=O)c1ccc([C@H](CO)NC(=O)c2cnc3c(c2)CN(CC(F)(F)F)[C@H]3Cc2ccccc2)cc1 [Compound 22] |  |
|  | < 100 nM | CCS(=O)(=O)c1ccc([C@H](CO)NC(=O)c2cnc3c(c2)CN(C[C@H]2CC[C@H](C(F)(F)F)CC2)C3C(F)(F)F)cc1 (some centres unmarked) [Compound 23] |  |
|  | < 100 nM | CCS(=O)(=O)c1ccc([C@H](CO)NC(=O)c2cnc3c(c2)CN(C[C@H]2CC[C@H](C(F)(F)F)CC2)[C@H]3C)cc1 [Compound 26] |  |
|  | < 100 nM | CCS(=O)(=O)c1ccc([C@H](CO)NC(=O)c2cnc3c(c2)CN(C[C@H]2CC[C@H](C(F)(F)F)CC2)[C@H]3CC2CCOCC2)cc1 [Compound 27] |  |
|  | > 1000 nM | CCS(=O)(=O)c1ccc([C@H](CO)NC(=O)c2cnc3c(c2)CN(C[C@H]2CC[C@H](C(F)(F)F)CC2)[C@@H]3C)cc1 [Compound 28] |  |
|  | 100 to 1000 nM | CCS(=O)(=O)c1ccc([C@@H](NC(=O)c2cnc3c(c2)CN(C[C@H]2CC[C@H](C(F)(F)F)CC2)[C@H]3C(C)C)[C@@H](C)O)cc1 [Compound 29] |  |
|  | 100 to 1000 nM | CCS(=O)(=O)c1ccc([C@@H](NC(=O)c2cnc3c(c2)CN(C[C@H]2CC[C@H](C(F)(F)F)CC2)[C@H]3C(C)C)[C@@H](C)O)cc1 [Compound 30] |  |
|  | < 100 nM | CCS(=O)(=O)c1ccc([C@H](CO)NC(=O)c2cnc3c(c2)CN(C[C@H]2CC[C@H](C(F)(F)F)CC2)[C@H]3C2CCOCC2)cc1 [Compound 31] |  |
|  |  | CC[C@H]1c2ncc(C(=O)N[C@@H](CO)c3ccc(S(=O)(=O)CC)cn3)cc2CN1C[C@H]1CC[C@H](C(F)(F)F)CC1 [Compound 33] | inhibition at 3 µM [3]: 29.1% |
|  | < 100 nM | CCS(=O)(=O)c1ccc([C@H](CO)NC(=O)c2cnc3c(c2)CN(C[C@H]2CC[C@H](C(F)(F)F)CC2)[C@H]3Cc2ccccc2)cc1 [Compound 37] |  |
|  |  | CC[C@H]1c2ncc(C(=O)N[C@@H](CO)c3ccc(S(=O)(=O)CC)cc3)cc2CN1C[C@H]1CC[C@H](C(F)(F)F)CC1 [Compound 41, (S)-7-ethyl-N—((R)-1-(4-(ethylsulfonyl)phenyl)-2-hydroxyethyl)-6-((trans-4-(trifluoromethyl)cyclohexyl)methyl)-6,7-dihydro-5H-pyrrolo[3,4-b]pyridine-3-carboxamide] | inhibition at 3 µM [3]: 7.7% |
|  | < 100 nM | CCO[C@H]1CC[C@H](CN2Cc3cc(C(=O)N[C@@H](CO)c4ccc(S(=O)(=O)CC)cc4)cnc3[C@@H]2C(C)C)CC1 [Compound 43] |  |
|  |  | CCS(=O)(=O)c1ccc([C@@H](CO)NC(=O)c2cnc3c(c2)CN(C[C@H]2CC[C@H](C(F)(F)F)CC2)[C@H]3C(C)C)nc1 [Compound 44] | inhibition at 3 µM [3]: 28.6% |
|  | < 100 nM | CCS(=O)(=O)c1ccc([C@H](CO)NC(=O)c2cnc3c(c2)CN(C[C@H]2CC[C@H](C(F)(F)F)CC2)[C@H]3C(C)C)cc1 [Compound 46, (S)—N—((R)-1-(4-(ethylsulfonyl)phenyl)-2-hydroxyethyl)-7-isopropyl-6-((trans-4-(trifluoromethyl)cyclohexyl)methyl)-6,7-dihydro-5H-pyrrolo[3,4-b]pyridine-3-carboxamide] | inhibition at 3 µM [3]: 44.3% |
|  | < 100 nM | CCS(=O)(=O)c1ccc([C@@H](CO)NC(=O)c2cnc3c(c2)CN(C[C@H]2CC[C@H](C(F)(F)F)CC2)[C@H]3C(C)C)cc1 [Compound 47] |  |

| Compound | IC50 [1] | Ki [2, 4] | other results |
| --- | --- | --- | --- |
| CCS(=O)(=O)c1ccc([C@H](CO)NC(=O)c2cnc3c(c2)CN(C[C@@H]2CC[C@@H](C(F)(F)F)OC2)[C@H]3C(C)C)nc1 [Compound 1] | < 100 nM | < 100 nM | IC50 (IL-17A production): < 100 nM |
| CCS(=O)(=O)c1ccc([C@H](CO)NC(=O)c2cnc3c(c2)CN(C[C@H]2CC[C@H](C(F)(F)F)OC2)[C@H]3C(C)C)nc1 [Compound 4] | < 100 nM |  | IC50 (IL-17A production): < 100 nM; Ki [2]: < 100 nM |
| CC[C@H]1c2ncc(C(=O)N[C@@H](CO)c3ccc(S(C)(=O)=O)cc3)cc2CN1C[C@H]1CC[C@H](C(F)(F)F)CC1 [Compound 24] | < 100 nM | < 100 nM |  |
